# Measurements as given in US12459951B2, “Compounds that interact with RAS superfamily proteins for treatment of cancers, inflammatory diseases, rasopathies, and fibrotic disease” (SHY Therapeutics, LLC, priority 2022, dated 2025).
# How the values were obtained:
# [1] = test system: Akt phosphorylation; assay: Akt Phosphorylation Assay (western blot), Panc-1; type: cell-based, human; settings: at 10 μM, * = activation
# In short: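 Phospho-Akt (Ser473) was measured by western blot in lysates of KRas G12D Panc-1 cells exposed to test compound for 6 h at 37 °C, either at 10 μM final with 0.3% DMSO or as serial dilutions for IC50. One format used overnight 0.5% FBS starvation followed by a 15 min pulse of 1.5 ng/ml EGF. The other used cells in 10% FBS with no stimulation.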
# [2] = test system: KRas wild type; assay: Ras GTP Binding Domain Inhibition Assay (Ras Superfamily Assay); settings: at 20 μM; for KRas wild type + SOS: % inh.: with SOS; for KRas wild type: % inh.: without SOS
# In short: (§1)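 His-tagged GTPases immobilised on nickel-coated plates, pre-incubated with compound (20 μM single point, or serial dilution for IC50) 3 h at room temperature, with or without 10-30 μg/mL Sos (residues 556-1049) in the final hour. Bound Cy3- or Cy5-GTP (100 nM, 45 min) measured by fluorescence after washing.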
# [3] = target: T1, Rac-1 (Homo sapiens, UniProt P63000); assay: as above; settings: read-out: Rac-1: % inh.
# T1 construct: made in house
# In short: as §1
# [4] = test system: KRas G12D mutant; assay: as above; settings: at 20 μM; for KRas G12D mutant + SOS: % inh.: with SOS; for KRas G12D mutant: % inh.: without SOS
# In short: as §1
KRas wild type + SOS: % inh. [2],KRas wild type: % inh. [2],inhibition at 20 µM [3] [%],KRas G12D mutant + SOS: % inh. [4],KRas G12D mutant: % inh. [4],Compound,% inh of Akt phosphorylation in Panc-1 [1]
0 (0 = 0% inhibition),A (A = 1-25% inhibition),1 to 25,A (A = 1-25% inhibition),A (A = 1-25% inhibition),"CO[C@H]1C[C@H](Nc2nc(-c3nccn3C)nn3cc(-c4cccc5c4CCO5)c(-c4ccccc4)c23)C1 [Compound 210, 6-(2,3-Dihydrobenzofuran-4-yl)-N-((1r,3r)-3-methoxycyclobutyl)-2-(1-methyl-1H-imidazol-2-yl)-5-phenylpyrrolo[2,1-f][1,2,4]triazin-4-amine]",D (85-100% inhibition)
D (D = 76-100% inhibition),C (C = 50-75% inhibition),50 to 75,C (C = 50-75% inhibition),C (C = 50-75% inhibition),"Cc1c(-c2ccn(C)n2)cn2nc(-c3nccn3C)nc(N)c12 [Compound 211, 5-Methyl-2-(1-methyl-1H-imidazol-2-yl)-6-(1-methyl-1H-pyrazol-3-yl)pyrrolo[2,1-f][1,2,4]triazin-4-amine]",A (1-25% inhibition)
D (D = 76-100% inhibition),C (C = 50-75% inhibition),50 to 75,D (D = 76-100% inhibition),C (C = 50-75% inhibition),"Cn1ccnc1-c1nc(NS(C)(=O)=O)c2c(-c3ccccc3)c(-c3ccccc3)cn2n1 [Compound 212, N-(2-(1-Methyl-1H-imidazol-2-yl)-5,6-diphenylpyrrolo[2,1-f][1,2,4]triazin-4-yl) methanesulfonamide]",A* (1-25% activation)
D (D = 76-100% inhibition),D (D = 76-100% inhibition),50 to 75,D (D = 76-100% inhibition),D (D = 76-100% inhibition),"COCCCS(=O)(=O)Nc1nc(-c2nccn2C)nn2cc(-c3ccccc3)c(-c3ccccc3)c12 [Compound 213, 3-Methoxy-N-(2-(1-methyl-1H-imidazol-2-yl)-5,6-diphenylpyrrolo[2,1-f][1,2,4]triazin-4-yl)propane-1-sulfonamide]",D* (85-100% activation)
C (C = 50-75% inhibition),C (C = 50-75% inhibition),50 to 75,C (C = 50-75% inhibition),C (C = 50-75% inhibition),"CO[C@H]1C[C@H](S(=O)(=O)Nc2nc(-c3nccn3C)nn3cc(-c4ccccc4)c(-c4ccccc4)c23)C1 [Compound 214, (1r,3r)-3-Methoxy-N-(2-(1-methyl-1H-imidazol-2-yl)-5,6-diphenylpyrrolo[2,1-f][1,2,4]triazin-4-yl)cyclobutane-1-sulfonamide]",A* (1-25% activation)
D (D = 76-100% inhibition),D (D = 76-100% inhibition),76 to 100,D (D = 76-100% inhibition),D (D = 76-100% inhibition),"COc1ccnc(Nc2nc(-c3nccn3C)nn3cc(-c4ccn(CCNC(=O)CCCC[C@H]5SC[C@H]6NC(=O)N[C@H]65)n4)c(C)c23)c1 [Compound 215, N-(2-(3-(4-((4-methoxypyridin-2-yl)amino)-5-methyl-2-(1-methyl-1H-imidazol-2-yl)pyrrolo[2,1-f][1,2,4]triazin-6-yl)-1H-pyrazol-1-yl)ethyl)-5-((3aR,4R,6aS)-2-oxohexahydro-1H-thieno[3,4-d]imidazol-4-yl)pentanamide]",B* (26-49% activation)
D (D = 76-100% inhibition),D (D = 76-100% inhibition),76 to 100,D (D = 76-100% inhibition),D (D = 76-100% inhibition),"COc1ccnc(Nc2nc(-c3nccn3CCNC(=O)CCCC[C@H]3SC[C@H]4NC(=O)N[C@H]43)nn3cc(-c4ccn(C)n4)c(C)c23)c1 [Compound 216, N-(2-(2-(4-((4-methoxypyridin-2-yl)amino)-5-methyl-6-(1-methyl-1H-pyrazol-3-yl)pyrrolo[2,1-f][1,2,4]triazin-2-yl)-1H-imidazol-1-yl)ethyl)-5-((3aR,4R,6aS)-2-oxohexahydro-1H-thieno[3,4-d]imidazol-4-yl)pentanamide]",A* (1-25% activation)
B (B = 26-49% inhibition),C (C = 50-75% inhibition),50 to 75,B (B = 26-49% inhibition),C (C = 50-75% inhibition),"COc1ccnc(Nc2nc(-c3nccn3C)nn3cc(-c4c(F)cccc4OC)c(-c4ccccc4)c23)c1 [Compound 217, 6-(2-Fluoro-6-methoxyphenyl)-N-(4-methoxypyridin-2-yl)-2-(1-methyl-1H-imidazol-2-yl)-5-phenylpyrrolo[2,1-f][1,2,4]triazin-4-amine]",D* (85-100% activation)
A (A = 1-25% inhibition),A (A = 1-25% inhibition),1 to 25,A (A = 1-25% inhibition),A (A = 1-25% inhibition),"CO[C@H]1C[C@H](Nc2nc(-c3nccn3C)nn3cc(-c4cnccc4C)c(-c4ccccc4)c23)C1 [Compound 218, N-((1r,3r)-3-Methoxycyclobutyl)-2-(1-methyl-1H-imidazol-2-yl)-6-(4-methylpyridin-3-yl)-5-phenylpyrrolo[2,1-f][1,2,4]triazin-4-amine]",D* (85-100% activation)
0 (0 = 0% inhibition),A (A = 1-25% inhibition),1 to 25,0 (0 = 0% inhibition),A (A = 1-25% inhibition),"COc1cccc(-c2cn3nc(-c4nccn4C)nc(N[C@H]4C[C@H](OC)C4)c3c2-c2ccccc2)c1OC [Compound 219, 6-(2,3-Dimethoxyphenyl)-N-((1r,3r)-3-methoxycyclobutyl)-2-(1-methyl-1H-imidazol-2-yl)-5-phenylpyrrolo[2,1-f][1,2,4]triazin-4-amine]",D (85-100% inhibition)
A (A = 1-25% inhibition),B (B = 26-49% inhibition),26 to 49,A (A = 1-25% inhibition),B (B = 26-49% inhibition),"COc1ccnc(Oc2nc(-c3nccn3C)nn3cc(-c4ccn(C)n4)c(C)c23)c1 [Compound 220, 4-((4-Methoxypyridin-2-yl)oxy)-5-methyl-2-(1-methyl-1H-imidazol-2-yl)-6-(1-methyl-1H-pyrazol-3-yl)pyrrolo[2,1-f][1,2,4]triazine]",A (1-25% inhibition)
